Key:
[1] = biological target: T1, human CB2 (Homo sapiens, UniProt P34972); test: fluorescence-based membrane potential assay (GIRK activation) in AtT20 cells; type: cell-based; parameters: expressed in transfected cells; host or cells: mouse AtT20 FlpIn cells; settings: for hCB2 Emax ±SEM: normalised to 1 μM CP55,940
[2] = biological target: T1, human CB2; test: competitive radioligand binding assay, displacement of [3H]CP55,940, HEK cell membranes; parameters: expressed in transfected cells; host or cells: HEK293 cells, P2 membrane preparation; settings: [3H]CP55,940 1 nM
[3] = biological target: T2, human CB1 (Homo sapiens, UniProt P21554); test: as above; parameters: expressed in transfected cells; host or cells: HEK293 cells, P2 membrane preparation; settings: [3H]CP55,940 1 nM
T2 sequence (P21554 whole entry): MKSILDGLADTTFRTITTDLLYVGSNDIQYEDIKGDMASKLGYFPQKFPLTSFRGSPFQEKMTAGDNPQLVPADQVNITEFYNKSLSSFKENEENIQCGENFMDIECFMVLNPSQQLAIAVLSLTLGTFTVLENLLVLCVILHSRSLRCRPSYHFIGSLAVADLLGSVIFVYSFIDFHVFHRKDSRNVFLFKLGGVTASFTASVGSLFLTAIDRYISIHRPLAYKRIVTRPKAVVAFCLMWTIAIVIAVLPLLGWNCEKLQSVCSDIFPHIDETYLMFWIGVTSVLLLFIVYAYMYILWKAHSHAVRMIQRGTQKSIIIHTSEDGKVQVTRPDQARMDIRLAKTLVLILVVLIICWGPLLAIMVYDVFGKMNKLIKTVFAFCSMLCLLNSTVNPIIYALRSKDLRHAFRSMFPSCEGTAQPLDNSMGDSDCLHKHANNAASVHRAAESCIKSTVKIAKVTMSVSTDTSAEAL

[4] = biological target: T2, human CB1; test: fluorescence-based membrane potential assay (GIRK activation) in AtT20 cells; type: cell-based; parameters: expressed in transfected cells; host or cells: mouse AtT20 FlpIn cells; settings: for hCB1 Emax ±SEM / hCB1 maximal response at 10 μM (footnote d): AtT20-hCB1; for hCB1 Emax ±SEM: normalised to 1 μM CP55,940; for EC50: hCB1 EC50, AtT20-hCB1, value in brackets after pEC50; for hCB1 maximal response at 10 μM (footnote d): highest concentration tested, curve not fitted
[5] = tested on: CB1; parameters: method as in PMID 26134475; settings: cited from earlier work
[6] = tested on: CB2; parameters: method as in PMID 26134475; settings: cited from earlier work
[7] = hCB2 EC50, AtT20-hCB2, value in brackets after pEC50
[8] = hCB2 Ki, value in brackets after pKi
[9] = hCB1 Ki, value in brackets after pKi
[10] = hCB1 pKi ±SEM, mean ± SEM of 3 to 6 independent experiments
[11] = hCB2 pKi ±SEM, mean ± SEM of 3 to 6 independent experiments

T1 sequence (P34972 whole entry): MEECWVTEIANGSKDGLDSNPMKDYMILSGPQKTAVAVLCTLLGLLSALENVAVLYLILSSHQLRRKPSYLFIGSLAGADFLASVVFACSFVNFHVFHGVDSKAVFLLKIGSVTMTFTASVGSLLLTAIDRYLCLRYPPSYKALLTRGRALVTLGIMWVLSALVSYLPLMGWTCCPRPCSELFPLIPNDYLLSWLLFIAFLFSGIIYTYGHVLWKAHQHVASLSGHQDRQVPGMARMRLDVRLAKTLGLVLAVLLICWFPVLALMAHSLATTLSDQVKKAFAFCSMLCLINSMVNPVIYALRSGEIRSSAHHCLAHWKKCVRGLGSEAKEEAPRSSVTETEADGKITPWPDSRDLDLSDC

Structure (SMILES) | hCB2 Emax ±SEM ([1]; AtT20-hCB2) | EC50 [1, 7] | Ki [2, 8] | Ki [3, 9] | melting point | hCB1 Emax ±SEM [4] | EC50 [4] | Ki [3, 10] | hCB1 maximal response at 10 μM (footnote d) [4] | hCB1 maximal response at 10 μM (footnote d) ([4]; listed as APP-4F-BUT7AICA (33)) | EC50 ([1]; hCB2 pEC50 ±SEM, AtT20-hCB2) | Ki [2, 11] | Emax at CB1 [5] | pEC50 at CB1 [5] | effect at 30 μM at CB2 [6]
NC(=O)[C@H](Cc1ccccc1)NC(=O)c1nn(CCCCF)c2ccccc12 [Compound 30, (S)-N-(1-amino-1-oxo-3-phenylpropan-2-yl)-1-(4-fluorobutyl)-1H-indazole-3-carboxamide] | 101 ± 12 % CP55,940 | 8.35 nM | 28.2 nM | 1380 nM | 100 to 103 °C | 103 ± 3 % CP55,940 | 504 nM |  |  |  |  |  |  |  | 
CC(C)(C)[C@H](NC(=O)c1cn(CCCCF)c2ncccc12)C(N)=O [Compound 32, (S)-N-(1-amino-3,3-dimethyl-1-oxobutan-2-yl)-1-(4-fluorobutyl)-1H-pyrrolo[2,3-b]pyridine-3-carboxamide] | 108 ± 2 % CP55,940 | 4.99 nM | 46 nM | 1300 nM | 95 to 96 °C | 112 ± 6 % CP55,940 | 46 nM | 1260 nM |  |  |  |  |  |  | 
NC(=O)[C@H](Cc1ccccc1)NC(=O)c1cn(CCCCF)c2ncccc12 [Compound 33, (S)-N-(1-amino-1-oxo-3-phenylpropan-2-yl)-1-(4-fluorobutyl)-1H-pyrrolo[2,3-b]pyridine-3-carboxamide] | 99 ± 12 % CP55,940 | 1170 nM | 2400 nM |  | 153 to 154 °C |  |  | > 10000 nM | submaximal agonist activity | 25 ± 14^d % CP55,940 |  |  |  |  | 
COC(=O)[C@@H](NC(=O)c1cn(CCCCF)c2ccccc12)C(C)C [Compound 34, methyl (1-(4-fluorobutyl)-1H-indole-3-carbonyl)-L-valinate] | 102 ± 2 % CP55,940 | 11.4 nM | 26.9 nM | 97.7 nM | 111 to 114 °C | 116 ± 3 % CP55,940 | 76.9 nM |  |  |  | 11.2 nM |  |  |  | 
COC(=O)[C@H](Cc1ccccc1)NC(=O)c1cn(CCCCF)c2ccccc12 [Compound 35, methyl (1-(4-fluorobutyl)-1H-indole-3-carbonyl)-L-phenylalaninate] | 100 ± 2 % CP55,940 | 10.1 nM | 6.1 nM | 270 nM | 124 to 126 °C | 105 ± 2 % CP55,940 | 36.6 nM |  |  |  |  | 6.03 nM |  |  | 
COC(=O)[C@@H](NC(=O)c1cn(CCCCF)c2ncccc12)C(C)C [Compound 38, methyl (1-(4-fluorobutyl)-1H-pyrrolo[2,3-b]pyridine-3-carbonyl)-L-valinate] | 114 ± 6 % CP55,940 | 49.6 nM | 61 nM | 220 nM | 81 to 82 °C | 115 ± 16 % CP55,940 | 1390 nM | 224 nM |  |  |  | 60.3 nM |  |  | 
COC(=O)[C@@H](NC(=O)c1cn(CCCCF)c2ncccc12)C(C)(C)C [Compound 39, methyl (S)-2-(1-(4-fluorobutyl)-1H-pyrrolo[2,3-b]pyridine-3-carboxamido)-3,3-dimethylbutanoate] | 95 ± 2 % CP55,940 | 3.88 nM | 2.14 nM | 107 nM | 56 to 58 °C | 109 ± 3 % CP55,940 | 22.2 nM |  |  |  |  |  |  |  | 
COC(=O)[C@H](Cc1ccccc1)NC(=O)c1cn(CCCCF)c2ncccc12 [Compound 40, methyl (1-(4-fluorobutyl)-1H-pyrrolo[2,3-b]pyridine-3-carbonyl)-L-phenylalaninate] | 110 ± 6 % CP55,940 | 26.9 nM |  | 880 nM | 109 to 112 °C | 122 ± 10 % CP55,940 | 637 nM |  |  |  |  | 28.8 nM |  |  | 
CCCCCc1cc(O)c2c(c1)OC(C)(C)[C@@H]1CCC(C)=C[C@@H]21 [THC, Δ^9-tetrahydrocannabinol] |  |  |  |  |  |  |  |  |  |  |  |  | 58% | 6.76 ± 0.09 | 32%
